pIC50: −log10 of the molar value.
target: MAPK14;MAPK11;MAPK12 (human) (UniProt Q16539); test: Inhibition of p38 Kinase Activity

`Cc1ccc(C(N)=O)cc1Nc1nc(NCCCn2ccnc2)nc(NC2CCCC2)n1` and `Cc1ccc(C(N)=O)cc1Nc1nc(NCC2CCNCC2)nc(NC2CCCC2)n1` cannot be ordered by pIC50: > 6.00 for the first, > 6.00 for the second.

`Cc1ccc(C(N)=O)cc1Nc1nc(N[C@H]2CCN(C3CCC3)C2)nc(N(C)CC(C)C)n1` and `Cc1ccc(C(N)=O)cc1Nc1nc(N[C@H]2CCN(C3CCCC3)C2)nc(N(C)CC(C)(C)C)n1` cannot be ordered by pIC50: > 6.00 for the first, > 6.00 for the second.

`CCNC(=O)c1ccc(C)c(Nc2nc(N[C@H]3CCNC3)nc(N(C)CC(C)(C)C)n2)c1` and `Cc1ccc(C(=O)NC(C)C)cc1Nc1nc(N[C@H]2CCNC2)nc(N(C)CC(C)(C)C)n1` cannot be ordered by pIC50: > 6.00 for the first, > 6.00 for the second.

`CONC(=O)c1ccc(C)c(Nc2nc(NCCCN3CCOCC3)nc(N(C)CC(C)(C)C)n2)c1` and `CONC(=O)c1ccc(C)c(Nc2nc(NCCN3CCOCC3)nc(N(C)CC(C)(C)C)n2)c1` cannot be ordered by pIC50: > 6.00 for the first, > 6.00 for the second.

`CC(CNc1nc(Nc2ccc3ncsc3c2)nc(N2CC3CC2CN3C(=N)N)n1)c1ccccc1` (stereo unspecified) and `CC(CNc1nc(N)nc(Nc2ccc3ncsc3c2)n1)c1ccccc1` (stereo unspecified) cannot be ordered by pIC50: > 5.00 for the first, > 5.00 for the second.

`CC(CNc1nc(Nc2ccc3ncsc3c2)nc(N2CCN(S(=O)(=O)N(C)C)CC2)n1)c1ccccc1` (stereo unspecified) and `CC(C)C(=O)N1CCN(c2nc(NCC(C)c3ccccc3)nc(Nc3ccc4ncsc4c3)n2)CC1` (stereo unspecified) cannot be ordered by pIC50: > 5.00 for the first, > 5.00 for the second.

`Cc1ccc(C(N)=O)cc1Nc1nc(NC[C@H]2CCCN2)nc(N(C)CC(C)(C)C)n1` and `Cc1ccc(C(N)=O)cc1Nc1nc(NC2CCCNC2)nc(N(C)CC(C)(C)C)n1` (stereo unspecified) cannot be ordered by pIC50: > 6.00 for the first, > 6.00 for the second.

`COc1ccc(C(=O)N(C)CCCN(C)c2nc(NCC(C)c3ccccc3)nc(Nc3ccc4ncsc4c3)n2)cc1` (stereo unspecified) and `CC(CNc1nc(Nc2ccc3ncsc3c2)nc(N(C)CCCN(C)C(=O)C2CCOC2)n1)c1ccccc1` (stereo unspecified) cannot be ordered by pIC50: > 5.00 for the first, > 5.00 for the second.

`CNC(=O)c1ccc(C)c(Nc2nc(N[C@H]3CCN(C(C)CO)C3)nc(N(C)CC(C)(C)C)n2)c1` (stereo partly specified) and `CNC(=O)c1ccc(C)c(Nc2nc(NC3CCN(Cc4ccccn4)C3)nc(N(C)CC(C)(C)C)n2)c1` (stereo unspecified) cannot be ordered by pIC50: > 6.00 for the first, > 6.00 for the second.

`Cc1ccc(C(=O)NCC(F)(F)F)cc1Nc1nc(N[C@H]2CCNC2)nc(N(C)CC(C)(C)C)n1` and `Cc1ccc(N)cc1Nc1nc(N[C@H]2CCNC2)nc(N(C)CC(C)(C)C)n1` cannot be ordered by pIC50: > 6.00 for the first, > 6.00 for the second.

`Cc1ccc(-c2nn(C)c(=O)[nH]2)cc1Nc1nc(N(C)CC(C)(C)C)nc(N2CCCN(C)CC2)n1` and `CONC(=O)c1ccc(C)c(Nc2nc(N(C)CC(C)(C)C)nc(N3CCCCC3)n2)c1` cannot be ordered by pIC50: > 6.00 for the first, > 6.00 for the second.

`CNC(=O)c1ccc(C)c(Nc2nc(N[C@H]3CCNC3)nc(N(C)CC3CCCC3)n2)c1` and `Cc1ccc(C(N)=O)cc1Nc1nc(NCC2CCCC2)nc(N[C@H]2CCNC2)n1` cannot be ordered by pIC50: > 6.00 for the first, > 6.00 for the second.

`CNc1nc(Nc2ccc3ncsc3c2)nc(N[C@@H](C)C2CCCCC2)n1` and `CC1(C)[C@H]2CCC(COc3nc(O)nc(Nc4ccc5ncsc5c4)n3)[C@@H]1C2` (stereo partly specified) cannot be ordered by pIC50: > 5.00 for the first, > 5.00 for the second.

`CNCCN(C)c1nc(NC[C@@H](C)c2ccccc2)nc(-n2cnc3ccccc32)n1` and `Cc1ccc(C(N)=O)cc1Nc1nc(O)nc(NCC(C)c2ccccc2)n1` (stereo unspecified) cannot be ordered by pIC50: > 5.00 for the first, > 6.00 for the second.

`CC(C)OCCNc1cc(N(C)C)nc(-n2cnc3ccccc32)n1` and `CC(C)OCCNc1cc(N2CCNCC2)nc(-n2cnc3ccccc32)n1` cannot be ordered by pIC50: > 5.00 for the first, > 5.00 for the second.

`COc1ccc(C(=O)N2CCN(c3nc(NCC(C)c4ccccc4)nc(Nc4ccc5ncsc5c4)n3)CC2)cc1` (stereo unspecified) and `CC(CNc1nc(Nc2ccc3ncsc3c2)nc(N2CCN(C(=O)c3cccnc3)CC2)n1)c1ccccc1` (stereo unspecified) cannot be ordered by pIC50: > 5.00 for the first, > 5.00 for the second.

`Cc1ccc(C(N)=O)cc1Nc1nc(NCC2CCCCC2)nc(N[C@@H]2CCNC2)n1` and `Cc1ccc(C(N)=O)cc1Nc1nc(NC[C@@H]2CC[C@H]3C[C@H]2C3(C)C)nc(NC2CCNCC2)n1` cannot be ordered by pIC50: > 6.00 for the first, > 6.00 for the second.

`NC(=O)C1CCN(c2nc(Nc3ccc4ncsc4c3)cc(NC3CCC3)n2)CC1` and `NC(=O)C1CCN(c2cc(Nc3ccc4ncsc4c3)nc(NC3CCC3)n2)CC1` cannot be ordered by pIC50: > 5.00 for the first, > 5.00 for the second.

`CC1(C)C2CCC(CNc3nc(Nc4ccc5ncsc5c4)cc(N4CCNCC4)n3)C1C2` (stereo unspecified) and `CC1(C)C2CCC(CNc3nc(Nc4ccc5ncsc5c4)nc(N4CCC(C(N)=O)CC4)n3)C1C2` (stereo unspecified) cannot be ordered by pIC50: > 5.00 for the first, > 5.00 for the second.

`CCONC(=O)c1ccc(C)c(Nc2nc(N(C)CC(C)(C)C)cc(N3CCCN(C)CC3)n2)c1` and `CNC(=O)c1ccc(C)c(Nc2nc(O[C@H]3CCNC3)nc(N(C)CC(C)(C)C)n2)c1` cannot be ordered by pIC50: > 6.00 for the first, > 6.00 for the second.

`CCC(C)N1CC[C@@H](Nc2nc(Nc3cc(C(N)=O)ccc3C)nc(N(C)CC(C)C)n2)C1` (stereo partly specified) and `Cc1ccc(CN2CCC(Nc3nc(Nc4cc(C(N)=O)ccc4C)nc(N(C)CC(C)C)n3)C2)c(C)c1` (stereo unspecified) cannot be ordered by pIC50: > 6.00 for the first, > 6.00 for the second.

`Cc1ccc(C(N)=O)cc1Nc1nc(NCC(N)=O)nc(NCC(C)c2ccccc2)n1` (stereo unspecified) and `CCOCNc1nc(NCC(C)c2ccccc2)nc(Nc2ccc3ncsc3c2)n1` (stereo unspecified) cannot be ordered by pIC50: > 6.00 for the first, > 5.00 for the second.

`Cc1ccc(C(N)=O)cc1Nc1nc(NC(C)C2CCCCC2)nc(N2CCNCC2)n1` (stereo unspecified) and `Cc1ccc(Nc2nc(NC[C@@H]3CC[C@H]4C[C@@H]3C4(C)C)nc(N3CCCNCC3)n2)cc1C(N)=O` cannot be ordered by pIC50: > 6.00 for the first, > 5.00 for the second.

`Cc1ccc(C(N)=O)cc1Nc1nc(N[C@H]2CCCC[C@H]2N)nc(N(C)CC(C)C)n1` and `Cc1ccc(C(N)=O)cc1Nc1nc(N[C@@H]2CCCC[C@H]2N)nc(N(C)CC(C)C)n1` cannot be ordered by pIC50: > 6.00 for the first, > 6.00 for the second.

`Cn1ccc2cc(Nc3nc(Cl)nc(NC[C@@H]4CC[C@H]5C[C@@H]4C5(C)C)n3)ccc21` and `CC1(C)[C@@H]2CC[C@@H](CNc3nc(Nc4cc(C(N)=O)ccc4Cl)nc(NC4CCNC4)n3)[C@H]1C2` (stereo partly specified) cannot be ordered by pIC50: > 5.00 for the first, > 6.00 for the second.

`Cc1ccc(C(=O)Nc2cccc(F)c2)cc1Nc1nc(N[C@H]2CCNC2)nc(N(C)CC(C)(C)C)n1` and `CCOC(=O)Nc1ccc(C)c(Nc2nc(N[C@H]3CCNC3)nc(N(C)CC(C)(C)C)n2)c1` cannot be ordered by pIC50: > 6.00 for the first, > 6.00 for the second.

`C=CCN1CC[C@H](Nc2nc(Nc3cc(C(=O)NC(C)C)ccc3C)nc(N(C)CC3CCCC3)n2)C1` and `CCc1ccc(CN2CC[C@@H](Nc3nc(Nc4cc(C(N)=O)ccc4C)nc(N(C)CC(C)C)n3)C2)cc1` cannot be ordered by pIC50: > 6.00 for the first, > 6.00 for the second.

`CC(=O)Nc1ccc(C)c(Nc2nc(NCC(C)(C)C)nc(N[C@H]3CCNC3)n2)c1` and `Cc1ccc(C(N)=O)cc1Nc1nc(N[C@H]2CCNC2)nc(SCC(C)C)n1` cannot be ordered by pIC50: > 6.00 for the first, > 6.00 for the second.

`CNC(=O)c1ccc(C)c(Sc2nc(NCc3ccccn3)nc(N(C)CC(C)(C)C)n2)c1` and `Cc1ccc(C(N)=O)cc1Nc1nc(NC2CCN(Cc3ccccc3)C2)nc(N(C)CC(C)(C)C)n1` (stereo unspecified) cannot be ordered by pIC50: > 4.52 for the first, > 6.00 for the second.

`CNC(=O)CCC(=O)N1CCN(c2nc(NCC3CCC4CC3C4(C)C)nc(Nc3ccc4ncsc4c3)n2)CC1` (stereo unspecified) and `COC1CCCC(C(=O)N2CCN(c3nc(NCC(C)c4ccccc4)nc(Nc4ccc5ncsc5c4)n3)CC2)C1` (stereo unspecified) cannot be ordered by pIC50: > 5.00 for the first, > 5.00 for the second.

`Cc1c(Cl)cc(C(N)=O)cc1Nc1nc(N[C@H]2CCNC2)nc(N(C)CC(C)(C)C)n1` and `CCCCC(C)c1nc(Nc2cc(C(N)=O)ccc2C)nc(N[C@H]2CCNC2)n1` (stereo partly specified) cannot be ordered by pIC50: > 6.00 for the first, > 6.00 for the second.

`Cc1ccc(C(N)=O)cc1Nc1nc(NC2CCN(Cc3ccccc3)C2)nc(N[C@H]2CCNC2)n1` (stereo partly specified) and `Cc1ccc(C(N)=O)cc1Nc1nc(CC2CCCC2)nc(Nc2ccncc2)n1` cannot be ordered by pIC50: > 6.00 for the first, > 6.00 for the second.

`Cc1ccc(C(N)=O)cc1Nc1nc(N[C@H]2CCCC[C@H]2NC(=O)CC(C)C)nc(N(C)CC(C)C)n1` and `Clc1cccc(Nc2nc(Cl)nc(Nc3ccc4ncsc4c3)n2)c1` cannot be ordered by pIC50: > 6.00 for the first, > 5.00 for the second.

From the Kinase Knowledgebase extract (Sharma et al. 2016)
